Reference: publication PMC12677653, “Inhibition of Tumor Lipogenesis and Growth by Peptide‐Based Targeting of SREBP Activation” (Advanced Science, 2025)

Test system: SREBP1/SREBP2 target genes
Assay: Quantitative PCR of SREBP target genes in Huh7 cells
Format: cell-based, human
Details: peptide 15 μM, IGF1 100 ng/mL 10 h, qPCR, n = 3
Protocol: Figure 1 The Insig1/2 loop 1 peptide binds to S90‐phosphorylated PCK1 and blocks PCK1‐mediated SREBP activation and tumor cell proliferation. Immunoblotting analyses were performed using the indicated antibodies; representative results from three independent experiments are shown (IP, immunoprecipitation; WB, western blot). a) Huh7 cells expressing various Insig1 (top) or Insig2 (bottom) truncation mutants were treated with or without IGF1 (100 ng mL^−1) for 1 h. b,c) Biolayer interferometry assays (Sartorius Octet) were employed to measure the binding affinity of Insig1/2 loop 1 peptide to GST‐PCK1 or GST‐PCK1 pS90 proteins. Data represent three independent experiments. d) Flag‐PCK1‐expressing Huh7 cells were pretreated with Insig1/2 loop 1 peptide (15 µM) for 1 h before IGF1 (100 ng mL^−1) stimulation. e) Huh7 cells were pretreated with low (7.5 µM) or high (15 µM) concentrations of Insig1/2 loop 1 peptide for 1 h before IGF1 (100 ng mL^−1) stimulation. f) Huh7 cells transiently transfected with β‐galactosidase and SRE‐driven luciferase reporter vectors were pretreated with Insig1/2 loop 1 peptide (15 µM) for 1 h, followed by stimulation with or without IGF1 (100 ng mL^−1) for 14 h. SRE luciferase activity was normalized to β‐galactosidase activity. Data represent the mean ± SD (n = 3). Statistical significance was determined by one‐way analysis of variance (ANOVA). g) Following pretreatment with Insig1/2 loop 1 peptide (15 µM) and IGF1 stimulation (100 ng mL^−1, 8 h), Huh7 cells were subjected to immunofluorescence analysis (scale bar: 10 µm). h) Quantitative PCR analysis of SREBP1 target gene GPAM in Huh7 cells pretreated with Insig1/2 loop 1 peptide (15 µM) and stimulated with IGF1 (100 ng mL^−1) for 10 h. Data represent the mean ± SD (n = 3). Statistical significance was determined by one‐way analysis of variance (ANOVA). i) Quantitative PCR analysis of SREBP1 target gene FASN in Huh7 cells pretreated with Insig1/2 loop 1 peptide (15 µM) and stimulated with IGF1 (100 ng mL^−1) for 10 h. Data represent the mean ± SD (n = 3). Statistical significance was determined by one‐way analysis of variance (ANOVA). j) Intracellular triglyceride (TG) content was quantified in Huh7 cells pretreated with Insig1/2 loop 1 peptide (25 µM) and stimulated with IGF1 (100 ng mL^−1) for 24 h. […] Statistical significance was determined by one‐way analysis of variance (ANOVA). k) Cell proliferation was assessed by automated cell counting after 72 h of IGF1 stimulation (100 ng mL^−1) in Huh7 cells pretreated with Insig1/2 loop 1 peptide (25 µM) for 1 h. […] Statistical significance was determined by one‐way analysis of variance (ANOVA). l) FLAG‐Insig1, Flag‐Insig1 S207A or FLAG‐ Insig1 S207D was expressed in Huh7 cells with depletion of Insig1 by expressing Insig1 shRNA. […]

RKKRRQRRRLYPCIDSHLGEPHKFKRE [Insig1/2 loop 1 peptide]
SREBP2-mediated expression of HMGCS1: suppressed | SREBP2-mediated expression of LDLR: suppressed | expression of FASN: markedly inhibited | expression of GPAM: markedly inhibited
